In patent publication US9586962B2, “Disubstituted octahydropyrrolo [3,4-C] pyrroles as orexin receptor modulators” (Janssen Pharmaceutica NV, priority 2011, dated 2017) one finds Ki data, which are given here for 31 molecules.

For orientation: Ki means a dissociation constant, usually derived from enzyme kinetics or from competition with a known ligand.

The target in the test is human orexin 2 receptor (Homo sapiens (Human), UniProt O43614). As to the kind of experiment: Human orexin 2 receptor radioligand binding ([3H]EMPA competition, HEK293 cells). The following applies: HEK293 cells expressing human orexin-2 receptor, read-out: OR 2 Ki.
human orexin 2 receptor, sequence (O43614 whole entry): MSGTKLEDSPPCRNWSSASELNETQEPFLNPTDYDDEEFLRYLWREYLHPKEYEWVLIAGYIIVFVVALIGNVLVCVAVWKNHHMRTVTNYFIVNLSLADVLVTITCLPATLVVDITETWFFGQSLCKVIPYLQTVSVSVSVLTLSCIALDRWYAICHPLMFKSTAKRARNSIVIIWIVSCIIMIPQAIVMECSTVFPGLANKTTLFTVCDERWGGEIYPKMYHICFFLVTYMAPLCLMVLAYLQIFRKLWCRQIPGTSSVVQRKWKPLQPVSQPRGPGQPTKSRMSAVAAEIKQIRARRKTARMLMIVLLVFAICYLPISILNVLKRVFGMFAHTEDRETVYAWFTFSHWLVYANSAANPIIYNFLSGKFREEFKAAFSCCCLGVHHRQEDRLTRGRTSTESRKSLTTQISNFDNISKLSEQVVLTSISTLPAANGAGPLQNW
Regarding `Cc1cc(C)nc(N2CC3CN(C(=O)c4ncccc4C(F)(F)F)CC3C2)n1` (stereo not shown) [Example 413, 2-(4,6-Dimethylpyrimidin-2-yl)-5-{[3-(trifluoromethyl)pyridin-2-yl]carbonyl}octahydropyrrolo[3,4-c]pyrrole], the inhibitory constant (Ki) was 9000 nM.

`CCOc1ccc(C)nc1C(=O)N1CC2CN(c3nc(C)cc(C)n3)CC2C1` (stereo not shown) [Example 414, 2-(4,6-Dimethylpyrimidin-2-yl)-5-[(3-ethoxy-6-methylpyridin-2-yl)carbonyl]octahydropyrrolo[3,4-c]pyrrole]: the inhibition constant Ki was determined as 897 nM.

For the molecule `CCOc1ncccc1C(=O)N1CC2CN(c3nc(C)cc(C)n3)CC2C1` (stereo not shown) [Example 415, 2-(4,6-Dimethylpyrimidin-2-yl)-5-[(2-ethoxypyridin-3-yl)carbonyl]octahydropyrrolo[3,4-c]pyrrole], the inhibition constant (Ki) was found to be 334 nM.

`Cc1nc(N(C)C)cc(N2CC3CN(C(=O)c4cccc(F)c4-n4nccn4)CC3C2)n1` (stereo not shown) [Example 416, 6-[5-{[3-Fluoro-2-(2H-1,2,3-triazol-2-yl)phenyl]carbonyl}hexahydropyrrolo[3,4-c]pyrrol-2(1H)-yl]-N,N,2-trimethylpyrimidin-4-amine]: the inhibition constant (Ki) was 164 nM.

For the molecule `Cc1nc(N(C)C)cc(N2CC3CN(C(=O)c4ccc(F)cc4-n4nccn4)CC3C2)n1` (stereo not shown) [Example 417, 6-[5-{[4-Fluoro-2-(2H-1,2,3-triazol-2-yl)phenyl]carbonyl}hexahydropyrrolo[3,4-c]pyrrol-2(1H)-yl]-N,N,2-trimethylpyrimidin-4-amine], the Ki worked out at 62 nM.

Turning to `Cc1nc(N(C)C)cc(N2CC3CN(C(=O)c4c(F)cccc4-n4nccn4)CC3C2)n1` (stereo not shown) [Example 418, 6-[5-{[2-Fluoro-6-(2H-1,2,3-triazol-2-yl)phenyl]carbonyl}hexahydropyrrolo[3,4-c]pyrrol-2(1H)-yl]-N,N,2-trimethylpyrimidin-4-amine], the Ki worked out at 55 nM.

In the case of `CCCOc1ccc(C)nc1C(=O)N1CC2CN(c3nc(C)cc(C)n3)CC2C1` (stereo not shown) [Example 419, 2-(4,6-Dimethylpyrimidin-2-yl)-5-[(6-methyl-3-propoxypyridin-2-yl)carbonyl]octahydropyrrolo[3,4-c]pyrrole], the inhibition constant Ki came to 1070 nM.

Take `CCOc1ccc(C)nc1C(=O)N1CC2CN(c3cc(N(C)C)nc(C)n3)CC2C1` (stereo not shown) [Example 420, 6-{5-[(3-Ethoxy-6-methylpyridin-2-yl)carbonyl]hexahydro-pyrrolo[3,4-c]pyrrol-2(1H)-yl}-N,N,2-trimethylpyrimidin-4-amine]: the inhibitory constant (Ki) came out at 1350 nM.

With `Cc1cc(C)nc(N2CC3CN(C(=O)c4nc(C)ccc4-c4ncccn4)CC3C2)n1` (stereo not shown) [Example 421, 2-(4,6-Dimethylpyrimidin-2-yl)-5-[(6-methyl-3-pyrimidin-2-ylpyridin-2-yl)carbonyl]octahydropyrrolo[3,4-c]pyrrole], the inhibition constant Ki came to 108 nM.

Take `Cc1cc(C)nc(N2CC3CN(C(=O)c4nc(C)ccc4-c4ncc(C)o4)CC3C2)n1` (stereo not shown) [Example 422, 2-(4,6-Dimethylpyrimidin-2-yl)-5-{[6-methyl-3-(5-methyl-1,3-oxazol-2-yl)pyridin-2-yl]carbonyl}octahydropyrrolo[3,4-c]pyrrole]: the Ki stood at 1050 nM.

In the case of `COc1ccc(-n2nccn2)c(C(=O)N2CC3CN(c4cc(N(C)C)nc(C)n4)CC3C2)c1` (stereo not shown) [Example 423, 6-[5-{[5-Methoxy-2-(2H-1,2,3-triazol-2-yl)phenyl]carbonyl}hexahydropyrrolo[3,4-c]pyrrol-2(1H)-yl]-N,N,2-trimethylpyrimidin-4-amine], the Ki was determined as 182 nM.

Turning to `CCCOc1ccc(C)nc1C(=O)N1CC2CN(c3cc(N(C)C)nc(C)n3)CC2C1` (stereo not shown) [Example 424, N,N,2-Trimethyl-6-{5-[(6-methyl-3-propoxypyridin-2-yl)carbonyl]hexahydropyrrolo[3,4-c]pyrrol-2(1H)-yl}pyrimidin-4-amine], the Ki came out at 1160 nM.

Turning to `Cc1nc(N(C)C)cc(N2CC3CN(C(=O)c4cc(F)ccc4-c4ncccn4)CC3C2)n1` (stereo not shown) [Example 425, 6-{5-[(5-Fluoro-2-pyrimidin-2-ylphenyl)carbonyl]hexahydropyrrolo[3,4-c]pyrrol-2(1H)-yl}-N,N,2-trimethylpyrimidin-4-amine], the inhibitory constant (Ki) turned out to be 85 nM.

With `Cc1nc(N(C)C)cc(N2CC3CN(C(=O)c4c(F)cccc4-c4ncccn4)CC3C2)n1` (stereo not shown) [Example 426, 6-{5-[(2-Fluoro-6-pyrimidin-2-ylphenyl)carbonyl]hexahydropyrrolo[3,4-c]pyrrol-2(1H)-yl}-N,N,2-trimethylpyrimidin-4-amine], the inhibition constant (Ki) is 36 nM.

In the case of `Cc1nc(N(C)C)cc(N2CC3CN(C(=O)c4cccc(F)c4-c4ncccn4)CC3C2)n1` (stereo not shown) [Example 427, 6-{5-[(3-Fluoro-2-pyrimidin-2-ylphenyl)carbonyl]hexahydropyrrolo[3,4-c]pyrrol-2(1H)-yl}-N, N,2-trimethylpyrimidin-4-amine], the Ki worked out at 79 nM.

With `Cc1ccc(-c2ncccn2)c(C(=O)N2CC3CN(c4cc(N(C)C)nc(C)n4)CC3C2)n1` (stereo not shown) [Example 428, N,N,2-Trimethyl-6-{5-[(6-methyl-3-pyrimidin-2-ylpyridin-2-yl)carbonyl]hexahydropyrrolo[3,4-c]pyrrol-2(1H)-yl}pyrimidin-4-amine], the Ki came to 244 nM.

Consider `Cc1ccc(-c2ncc(C)o2)c(C(=O)N2CC3CN(c4cc(N(C)C)nc(C)n4)CC3C2)n1` (stereo not shown) [Example 429, N,N,2-Trimethyl-6-[5-{[6-methyl-3-(5-methyl-1,3-oxazol-2-yl)pyridin-2-yl]carbonyl}hexahydropyrrolo[3,4-c]pyrrol-2(1H)-yl]pyrimidin-4-amine], for which the Ki was 764 nM.

In the case of `CCCOc1ccc(C)cc1C(=O)N1CC2CN(c3cc(N(C)C)nc(C)n3)CC2C1` (stereo not shown) [Example 430, N,N,2-Trimethyl-6-{5-[(5-methyl-2-propoxyphenyl)carbonyl]hexahydropyrrolo[3,4-c]pyrrol-2(1H)-yl}pyrimidin-4-amine], the Ki came to 270 nM.

With `[2H]c1c(C([2H])([2H])[2H])nc(N2CC3CN(C(=O)c4cccc(F)c4-c4ncccn4)CC3C2)nc1C([2H])([2H])[2H]` (stereo not shown) [Example 431, 2-{4,6-Bis[(^2H3)methyl](^2H)pyrimidin-2-yl}-5-[(3-fluoro-2-pyrimidin-2-ylphenyl)carbonyl]octahydropyrrolo[3,4-c]pyrrole], the Ki turned out to be 18 nM.

As to `Cc1cc(C)nc(N2CC3CN(C(=O)c4cccc(F)c4-c4nnc[nH]4)CC3C2)n1` (stereo not shown) [Example 432, 2-(4,6-Dimethylpyrimidin-2-yl)-5-{[3-fluoro-2-(1H-1,2,4-triazol-5-yl)phenyl]carbonyl}octahydropyrrolo[3,4-c]pyrrole], the Ki turned out to be 23 nM.

Turning to `Cc1cc(C)nc(N2CC3CN(C(=O)c4ccccc4-c4cn(Cc5ccccc5)nn4)CC3C2)n1` (stereo not shown) [Example 434, 2-{[2-(1-Benzyl-1H-1,2,3-triazol-4-yl)phenyl]carbonyl}-5-(4,6-dimethylpyrimidin-2-yl)octahydropyrrolo[3,4-c]pyrrole], the inhibitory constant (Ki) stood at 394 nM.

On to `COc1ccc(C(=O)N2CC3CN(c4nc(C)cc(CO)n4)CC3C2)c(-n2nccn2)c1` (stereo not shown) [Example 435, {2-[5-{[4-Methoxy-2-(2H-1,2,3-triazol-2-yl)phenyl]carbonyl}hexahydropyrrolo[3,4-c]pyrrol-2(1H)-yl]-6-methylpyrimidin-4-yl}methanol], for which the inhibition constant (Ki) was 24 nM.

As for `Cc1cc(CO)nc(N2CC3CN(C(=O)c4cccc(F)c4-c4nc(C)no4)CC3C2)n1` (stereo not shown) [Example 436, {2-[5-{[3-Fluoro-2-(3-methyl-1,2,4-oxadiazol-5-yl)phenyl]carbonyl}hexahydropyrrolo[3,4-c]pyrrol-2(1H)-yl]-6-methylpyrimidin-4-yl}methanol], the Ki was found to be 21 nM.

With `Cc1cc(C)nc(N2CC3CN(C(=O)c4c(F)cccc4-c4nnc[nH]4)CC3C2)n1` (stereo not shown) [Example 437, 2-(4,6-Dimethylpyrimidin-2-yl)-5-{[2-fluoro-6-(1H-1,2,4-triazol-5-yl)phenyl]carbonyl}octahydropyrrolo[3,4-c]pyrrole], the Ki turned out to be 270 nM.

As to `Cc1cc(C)nc(N2CC3CN(C(=O)c4nc(C)ccc4-n4ccnn4)CC3C2)n1` (stereo not shown) [Example 439, 2-(4,6-Dimethylpyrimidin-2-yl)-5-{[6-methyl-3-(1H-1,2,3-triazol-1-yl)pyridin-2-yl]carbonyl}octahydropyrrolo[3,4-c]pyrrole], the Ki turned out to be 10000 nM.

On to `Cc1nc(N2CC3CN(C(=O)c4ncc(Cl)cc4-n4nccn4)CC3C2)nc(C)c1C` (stereo not shown) [Example 442, 2-{[5-Chloro-3-(2H-1,2,3-triazol-2-yl)pyridin-2-yl]carbonyl}-5-(4,5,6-trimethylpyrimidin-2-yl)octahydropyrrolo[3,4-c]pyrrole], for which the Ki turned out to be 26 nM.

As for `COc1cnc(C(=O)N2CC3CN(c4nc(C)c(C)c(C)n4)CC3C2)c(-n2nccn2)c1` (stereo not shown) [Example 444, 2-{[5-Methoxy-3-(2H-1,2,3-triazol-2-yl)pyridin-2-yl]carbonyl}-5-(4,5,6-trimethylpyrimidin-2-yl)octahydropyrrolo[3,4-c]pyrrole], the inhibition constant (Ki) worked out at 20 nM.

Take `Cc1ccc(-c2ncccn2)c(C(=O)N2CC3CN(c4nc(C)c(C)c(C)n4)CC3C2)n1` (stereo not shown) [Example 445, 2-[(6-Methyl-3-pyrimidin-2-ylpyridin-2-yl)carbonyl]-5-(4,5,6-trimethylpyrimidin-2-yl)octahydropyrrolo[3,4-c]pyrrole]: the Ki came out at 27 nM.

Regarding `Cc1cc(C)nc(N2CC3CN(C(=O)c4ccc(OC(F)F)cc4-n4nccn4)CC3C2)n1` (stereo not shown) [Example 446, 2-{[4-(Difluoromethoxy)-2-(2H-1,2,3-triazol-2-yl)phenyl]carbonyl}-5-(4,6-dimethylpyrimidin-2-yl)octahydropyrrolo[3,4-c]pyrrole], the Ki was 72 nM.

For `CCOc1ncccc1C(=O)N1CC2CN(c3cnc4cc(F)c(F)cc4n3)CC2C1` (stereo not shown) [Example 447, 2-{5-[(2-Ethoxypyridin-3 yl)carbonyl]hexahydropyrrolo[3,4-c]pyrrol-2(1H)-yl}-6,7-difluoroquinoxaline], the inhibition constant (Ki) turned out to be 580 nM.

Turning to `CCOc1ncccc1C(=O)N1CC2CN(c3ncc4cc(F)ccc4n3)CC2C1` (stereo not shown) [Example 448, 2-{5-[(2-Ethoxypyridin-3-yl)carbonyl]hexahydropyrrolo[3,4-c]pyrrol-2(1H)-yl}-6-fluoroquinazoline], the Ki worked out at 340 nM.
